Results on two compounds are retold here after ChEMBL document CHEMBL1201862, “PubChem BioAssay data set” (2004).

Calls of active or inactive are those of the source. A value given as a limit tells only on which side of the number the result lay.

One assay has as its target T1, Caspase-3 (Homo sapiens, UniProt P42574).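 Further: Dose-response selectivity test against caspase-3 for candidate inhibitors of sentrin-specific proteases (SENPs).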
T1 sequence (P42574 whole entry): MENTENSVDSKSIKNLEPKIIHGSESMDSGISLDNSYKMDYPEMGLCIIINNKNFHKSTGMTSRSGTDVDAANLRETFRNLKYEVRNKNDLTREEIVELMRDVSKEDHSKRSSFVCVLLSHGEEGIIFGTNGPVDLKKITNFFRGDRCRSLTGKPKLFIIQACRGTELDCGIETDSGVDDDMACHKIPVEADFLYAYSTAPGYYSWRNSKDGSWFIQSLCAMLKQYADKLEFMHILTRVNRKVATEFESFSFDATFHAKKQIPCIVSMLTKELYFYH
The assay is classed as functional.

In assay [1] the target is T2, Sentrin-specific protease 8 (Homo sapiens, UniProt Q96LD8).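 Further: luminescence read-out of SENP8 inhibition, dose-response confirmation following an ultra-high-throughput screen.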
T2 sequence (Q96LD8 whole entry): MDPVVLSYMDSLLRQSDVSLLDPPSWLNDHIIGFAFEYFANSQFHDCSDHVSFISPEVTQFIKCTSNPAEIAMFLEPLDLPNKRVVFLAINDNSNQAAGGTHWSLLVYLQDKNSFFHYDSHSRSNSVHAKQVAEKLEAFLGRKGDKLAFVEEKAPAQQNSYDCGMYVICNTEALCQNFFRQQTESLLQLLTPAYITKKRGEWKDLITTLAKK
The assay is classed as functional.

Another assay relates to A-375. In words: A375 melanoma cell viability reduction, dose response, counter-screen for MITF modulator project, cherry-pick samples, set 2 (AID 540335). The assay is classed as functional, cell-based. Particulars: Homo sapiens. Background: The purpose of a counterscreen is to sort out artefacts and off-target activity.
Assay [2] can be described thus: cytotoxicity in HEK-293T NF-kB-Luc cells, dose response, cytotoxicity control for B/T-cell NF-kB inhibitor project, cell-based, uHTS hits (AID 489019).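 Further: IC50 reflects cytotoxicity as loss of cell viability.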 The assay is classed as functional.
Assay [3] addresses T3, Replicative DNA helicase DnaB (Mycobacterium tuberculosis, UniProt P9WMR3).
T3 sequence (P9WMR3 whole entry): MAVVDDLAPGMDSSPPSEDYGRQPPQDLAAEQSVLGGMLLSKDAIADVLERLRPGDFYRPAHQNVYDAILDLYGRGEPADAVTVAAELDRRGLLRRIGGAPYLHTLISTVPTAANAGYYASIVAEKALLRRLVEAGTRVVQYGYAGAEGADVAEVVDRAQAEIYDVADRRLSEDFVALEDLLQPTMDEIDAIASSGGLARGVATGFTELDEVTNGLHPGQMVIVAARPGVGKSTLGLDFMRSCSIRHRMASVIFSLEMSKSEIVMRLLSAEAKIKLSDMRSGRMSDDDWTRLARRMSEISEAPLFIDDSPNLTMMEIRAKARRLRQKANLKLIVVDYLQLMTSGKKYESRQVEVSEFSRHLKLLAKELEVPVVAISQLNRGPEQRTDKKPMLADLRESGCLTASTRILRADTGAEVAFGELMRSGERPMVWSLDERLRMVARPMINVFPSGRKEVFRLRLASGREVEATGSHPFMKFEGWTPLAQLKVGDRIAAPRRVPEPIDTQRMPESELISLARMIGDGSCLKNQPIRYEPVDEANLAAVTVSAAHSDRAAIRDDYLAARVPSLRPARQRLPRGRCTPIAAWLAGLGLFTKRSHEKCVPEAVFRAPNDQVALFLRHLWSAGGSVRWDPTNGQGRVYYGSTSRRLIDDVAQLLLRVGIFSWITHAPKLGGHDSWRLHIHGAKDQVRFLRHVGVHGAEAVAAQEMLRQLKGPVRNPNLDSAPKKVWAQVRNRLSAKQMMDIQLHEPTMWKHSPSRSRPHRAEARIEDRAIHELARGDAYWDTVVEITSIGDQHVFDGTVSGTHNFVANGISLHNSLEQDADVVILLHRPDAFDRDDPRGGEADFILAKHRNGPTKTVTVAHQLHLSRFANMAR
Nature of the assay: DnaB intein splicing inhibitors, dose response, biochemical, cell-free fluorescence (AID 449749). In kind it is functional.

The target of assay [4] is T4, Sentrin-specific protease 7 (Homo sapiens, UniProt Q9BQF6).
T4 sequence (Q9BQF6 whole entry): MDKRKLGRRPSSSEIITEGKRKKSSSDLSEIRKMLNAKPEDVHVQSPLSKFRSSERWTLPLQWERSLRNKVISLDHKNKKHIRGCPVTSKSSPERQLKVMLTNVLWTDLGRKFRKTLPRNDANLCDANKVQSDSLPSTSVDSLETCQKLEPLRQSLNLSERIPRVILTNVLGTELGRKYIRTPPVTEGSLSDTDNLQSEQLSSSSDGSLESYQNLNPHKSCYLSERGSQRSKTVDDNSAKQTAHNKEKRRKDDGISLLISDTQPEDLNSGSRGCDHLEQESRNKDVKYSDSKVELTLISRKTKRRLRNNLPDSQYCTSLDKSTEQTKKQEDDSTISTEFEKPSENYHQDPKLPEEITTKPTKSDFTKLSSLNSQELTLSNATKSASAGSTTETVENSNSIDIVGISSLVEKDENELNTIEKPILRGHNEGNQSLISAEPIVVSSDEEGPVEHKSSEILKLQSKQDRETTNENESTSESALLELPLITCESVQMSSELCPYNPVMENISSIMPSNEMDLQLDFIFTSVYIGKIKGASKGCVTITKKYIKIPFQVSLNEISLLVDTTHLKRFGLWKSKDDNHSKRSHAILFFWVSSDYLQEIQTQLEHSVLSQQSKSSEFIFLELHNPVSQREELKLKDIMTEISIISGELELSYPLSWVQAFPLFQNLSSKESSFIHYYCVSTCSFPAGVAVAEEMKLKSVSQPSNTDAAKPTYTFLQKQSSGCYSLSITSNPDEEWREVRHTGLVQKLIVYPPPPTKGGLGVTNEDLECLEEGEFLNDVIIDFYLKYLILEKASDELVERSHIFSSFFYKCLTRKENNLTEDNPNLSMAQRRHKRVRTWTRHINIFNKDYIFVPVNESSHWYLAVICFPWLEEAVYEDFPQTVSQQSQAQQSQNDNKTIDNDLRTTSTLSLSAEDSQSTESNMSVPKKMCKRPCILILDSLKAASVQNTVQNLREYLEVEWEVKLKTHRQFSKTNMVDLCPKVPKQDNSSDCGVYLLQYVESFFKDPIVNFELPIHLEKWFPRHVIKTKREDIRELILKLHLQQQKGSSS
Nature of the assay: SENP7 protease inhibitors, SAR follow-up, biochemical, luminescence (AID 504497). In kind it is functional.

For the compound `N#Cc1c(NC(=O)CSc2nc[nH]n2)sc2c1CCCCC2`, the figures for the IC50 (at Caspase-3; in assay [1]; in assay [2]) were 45.2 µM (active), 4.66 µM (active) and > 80 µM (inactive), respectively. Besides, the concentration at half-maximal activity (AC50) (in general, the concentration giving half of the maximal activity seen) with A-375 is > 35 µM (active).
With `COc1ccc(C(N)c2nccc3cc(OC)c(OC)cc23)cc1OC` (stereo unspecified), the AC50 in assay [3] was > 380 µM (inactive). Besides, the IC50 (commonly the point on the concentration scale where inhibition reaches its midpoint) in assay [4] was > 99 µM (inactive).
